Read-outs that look alike come from different tables or passages of the source.
Experiments:
[1] = biological target: T1, SIRT1 (Homo sapiens, UniProt Q96EB6); assay: biochemical; parameters: Sirtuin-TK assay, percent inhibition of human SIRT1 or SIRT2 at 5 and 50 uM
T1 sequence (Q96EB6 2-747): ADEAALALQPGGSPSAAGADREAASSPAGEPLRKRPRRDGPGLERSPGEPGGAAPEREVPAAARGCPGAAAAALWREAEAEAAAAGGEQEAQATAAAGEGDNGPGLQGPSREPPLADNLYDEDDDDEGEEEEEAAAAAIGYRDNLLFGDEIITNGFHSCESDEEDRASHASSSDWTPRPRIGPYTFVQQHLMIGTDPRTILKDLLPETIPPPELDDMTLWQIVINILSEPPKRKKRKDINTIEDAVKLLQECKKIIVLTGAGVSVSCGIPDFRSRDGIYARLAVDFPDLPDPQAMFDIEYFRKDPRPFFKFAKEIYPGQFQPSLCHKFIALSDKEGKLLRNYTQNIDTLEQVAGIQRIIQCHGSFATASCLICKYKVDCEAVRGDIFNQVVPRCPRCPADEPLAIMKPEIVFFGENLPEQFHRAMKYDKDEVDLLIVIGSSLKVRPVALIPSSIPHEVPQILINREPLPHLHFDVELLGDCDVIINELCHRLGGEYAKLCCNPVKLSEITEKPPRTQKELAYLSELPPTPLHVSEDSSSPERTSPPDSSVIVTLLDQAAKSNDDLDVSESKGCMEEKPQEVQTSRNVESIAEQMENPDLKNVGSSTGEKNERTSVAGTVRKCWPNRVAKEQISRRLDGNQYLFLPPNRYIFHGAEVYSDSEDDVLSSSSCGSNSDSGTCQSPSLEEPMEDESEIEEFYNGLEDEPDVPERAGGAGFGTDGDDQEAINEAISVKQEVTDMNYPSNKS
Method: (§1) Sirtuin-TK assay was performed to estimate the Sirtuins inhibitory potential of 5a–h (Tables 2 and 3). The results of this test strongly complemented the findings of cancer cell-based assessments. […] Of the 8 compounds evaluated, 3 analogs (5b, 5e and 5h) were more likely to inhibit Sirt2 (>70% inhibition) than Sirt1 (<50% inhibition) at 50 μM. The other compounds were poor inhibitors of both enzymes. […] 4.2.2. Sirtuin inhibitory assay

[2] = biological target: T2, SIRT2 (Homo sapiens, UniProt Q8IXJ6); assay: biochemical; parameters: Sirtuin-TK assay, percent inhibition of human SIRT1 or SIRT2 at 5 and 50 uM
T2 sequence (Q8IXJ6 2-389): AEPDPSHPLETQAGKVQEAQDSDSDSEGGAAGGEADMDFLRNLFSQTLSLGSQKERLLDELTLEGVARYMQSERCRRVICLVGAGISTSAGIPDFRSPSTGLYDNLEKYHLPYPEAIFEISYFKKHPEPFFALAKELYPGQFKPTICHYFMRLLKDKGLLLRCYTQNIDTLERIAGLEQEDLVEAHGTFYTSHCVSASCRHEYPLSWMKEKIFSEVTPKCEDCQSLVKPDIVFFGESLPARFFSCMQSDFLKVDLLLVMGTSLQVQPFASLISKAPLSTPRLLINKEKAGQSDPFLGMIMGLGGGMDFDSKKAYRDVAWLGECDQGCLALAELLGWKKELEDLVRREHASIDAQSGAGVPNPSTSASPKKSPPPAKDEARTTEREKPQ
Method: as §1

[3] = tested on: RXF 393; assay: cells; parameters: species or system NCI-60 human tumour cell lines; NCI-60 one-dose screen at 10 uM, percent growth inhibition versus untreated control cells; conditions: Homo sapiens, RXF 393, growth inhibition, one dose
[4] = tested on: COLO 205; assay: cells; parameters: species or system NCI-60 human tumour cell lines; NCI-60 one-dose screen at 10 uM, percent growth inhibition versus untreated control cells; conditions: Homo sapiens, COLO 205, growth inhibition, one dose
[5] = tested on: SK-OV-3; assay: cells; parameters: species or system NCI-60 human tumour cell lines; NCI-60 one-dose screen at 10 uM, percent growth inhibition versus untreated control cells; conditions: Homo sapiens, SK-OV-3, growth inhibition, one dose
[6] = tested on: SF-295; assay: cells; parameters: species or system NCI-60 human tumour cell lines; NCI-60 one-dose screen at 10 uM, percent growth inhibition versus untreated control cells; conditions: Homo sapiens, SF-295, growth inhibition, one dose
[7] = tested on: NCI-H23; assay: cells; parameters: species or system NCI-60 human tumour cell lines; NCI-60 one-dose screen at 10 uM, percent growth inhibition versus untreated control cells; conditions: Homo sapiens, NCI-H23, growth inhibition, one dose
[8] = tested on: TK-10; assay: cells; parameters: species or system NCI-60 human tumour cell lines; NCI-60 one-dose screen at 10 uM, percent growth inhibition versus untreated control cells; conditions: Homo sapiens, TK-10, growth inhibition, one dose
[9] = tested on: HT29; assay: cells; parameters: species or system NCI-60 human tumour cell lines; NCI-60 one-dose screen at 10 uM, percent growth inhibition versus untreated control cells; conditions: Homo sapiens, HT-29, growth inhibition, one dose
[10] = tested on: MDA-MB-468; assay: cells; parameters: species or system NCI-60 human tumour cell lines; NCI-60 one-dose screen at 10 uM, percent growth inhibition versus untreated control cells; conditions: Homo sapiens, MDA-MB-468, growth inhibition, one dose
[11] = read-out: Growth% inhibition / 5b
[12] = read-out: Growth% inhibition / 5e

Row | Structure (SMILES) | inhibition at 5 µM [1] [%] | inhibition at 5 µM [2] [%] | inhibition at 50 µM [1] [%] | inhibition at 50 µM [2] [%] | further results
1 | CN(C)c1ccc(C=NNC(=O)/C=C/C=C/c2ccc3c(c2)OCO3)cc1 (mixture of isomers) [5d, (2E,4E)-5-(Benzo[d][1,3]dioxol-5-yl)-N′-((E/Z)-4-(dimethylamino)-benzylidene)penta-2,4-dienehydrazide] | 11 ± 2 | 18 ± 2 |  |  | 
2 | O=C(/C=C/C=C/c1ccc2c(c1)OCO2)NN=Cc1ccc(O)cc1 [5a, (2E,4E)-5-(Benzo[d][1,3]dioxol-5-yl)-N′-((E,Z)-4-hydroxybenzylidene)penta-2,4-dienehydrazide] | 13 ± 3 | 19 ± 3 | 42 ± 3 |  | 
3 | O=C(/C=C/C=C/c1ccc2c(c1)OCO2)N/N=C/c1ccc(O)cc1O [5b, (2E,4E)-5-(Benzo[d][1,3]dioxol-5-yl)-N′-((E)-2,4-dihydroxybenzylidene)penta-2,4-dienehydrazide] | 18 ± 3 | 26 ± 3 |  | 78 ± 3 | inhibition at 10 µM [3, 11]: 42.1%; inhibition at 10 µM [4, 11]: 86%; inhibition at 10 µM [5, 11]: 73%; inhibition at 10 µM [6, 11]: 86.2%; inhibition at 10 µM [7, 11]: 70%; inhibition at 10 µM [8, 11]: 69%; inhibition at 10 µM [9, 11]: 51.9%
4 | CCN(CC)c1ccc(/C=N/NC(=O)/C=C/C=C/c2ccc3c(c2)OCO3)c(O)c1 [5e, (2E,4E)-5-(Benzo[d][1,3]dioxol-5-yl)-N′-((E)-4-(diethylamino)-2-hydroxybenzylidene)penta-2,4-dienehydrazide] | 20 ± 5 | 24 ± 3 | 44 ± 2 | 74 ± 2 | inhibition at 10 µM [3, 12]: 27.4%; inhibition at 10 µM [4, 12]: 60.1%; inhibition at 10 µM [5, 12]: 60.5%; inhibition at 10 µM [6, 12]: 58.3%; inhibition at 10 µM [10, 12]: 86.6%; inhibition at 10 µM [7, 12]: 50.3%; inhibition at 10 µM [8, 12]: 62.2%; inhibition at 10 µM [9, 12]: 32.2%
5 | C/C(=N\NC(=O)/C=C/C=C/c1ccc2c(c1)OCO2)c1ccc(Br)cc1 [5h, (2E,4E)-5-(Benzo[d][1,3]dioxol-5-yl)-N′-((E)-1-(4-bromophenyl)ethylidene)penta-2,4-dienehydrazide] | 16 ± 5 | 22 ± 5 | 44 ± 3 | 75 ± 3 | inhibition at 10 µM ([10]; read-out: Growth% inhibition / 5h): 29.3%
